Like-named read-outs stand apart in the source and are kept apart here.
Legend:
HCT 116 cells = assay: Cytotoxicity assay, HCT 116 colon cancer cells; format: cell-based, human; conditions: for IC50 / inhibition at 10 µM / inhibition at 100 µM: Homo sapiens, HCT-116, 48 h; for SI (selectivity index): IC50 CRL 1790 / IC50 HCT 116; for inhibition at 10 µM / inhibition at 100 µM: read-out: percentage inhibition of HCT 116 cells
Excerpt: (§1) Evaluation of the cytotoxic properties of the compounds presented in Table 1, Table 2, Table 3 and Table 4 was undertaken using the procedure outlined in [7]. In brief, the HCT 116 cells were obtained from the ATCC and cultured in McCoy’s 5A medium. The CRL 1790 cells were obtained from the ATCC and cultured in Minimum Essential Medium. The MCF-7 and MDA-MBA-231 cells were obtained from the Saskatchewan Cancer Agency and cultured in DMEM. In each assay the culture medium was supplemented with 10% fetal bovine serum and 1% penicillin–streptomycin antibiotics. The time of the bioassays was 48 h, unless indicated otherwise. All determinations were carried out in triplicate on three different occasions.

CRL 1790 cells = assay: Cytotoxicity assay, non-malignant CRL 1790 colon cells; format: cell-based; conditions: Homo sapiens, 48 h
Excerpt: as §1

MDA-MB-231 cells = assay: Cytotoxicity assay, MDA-MB-231 breast cancer cells; format: cell-based, human; conditions: Homo sapiens, MDA-MB-231, 48 h, read-out: percentage inhibition of MDA-MB-231 cells
Excerpt: as §1

MCF-7 cells = assay: Cytotoxicity assay, MCF-7 breast cancer cells; format: cell-based, human; conditions: for inhibition at 10 µM / inhibition at 100 µM: read-out: percentage inhibition of MCF-7 cells
Excerpt: as §1

[1] = Table 4, read-out: IC50 HCT 116
[2] = Table 4, read-out: IC50 CRL 1790
[3] = Table 2, read-out: Non-Malignant CRL 1790 Cells IC50

Row | Structure (SMILES) | melting point [°C] | IC50 (HCT 116 cells; [1]) [µM] | SI (selectivity index) (HCT 116 cells; Table 4) | times more potent than 1m (HCT 116 cells; ratio of IC50 values towards HCT 116 cells) [times] | IC50 (CRL 1790 cells; [2]) [µM] | inhibition at 10 µM (HCT 116 cells) [%] | inhibition at 100 µM (HCT 116 cells) [%] | inhibition at 10 µM (MDA-MB-231 cells) [%] | inhibition at 100 µM (MDA-MB-231 cells) [%] | inhibition at 10 µM (MCF-7 cells; Homo sapiens, MCF7, 48 h) [%] | inhibition at 100 µM (MCF-7 cells; Homo sapiens, MCF7, 48 h) [%] | IC50 (HCT 116 cells; Table 2, read-out: Neoplastic Cells IC50, HCT 116) [µM] | SI (selectivity index) (HCT 116 cells; Table 2) | IC50 (CRL 1790 cells; [3]) [µM] | IC50 (MCF-7 cells; Homo sapiens, MCF7, Table 2, 48 h, read-out: Neoplastic Cells IC50, MCF-7) [µM] | SI (selectivity index) (MCF-7 cells; IC50 CRL 1790 / IC50 MCF-7, Table 2)
1 | C=CC(=O)NNC(=O)c1cccc(C)c1 [1i, N^2-Acryloyl-3-methylbenzohydrazide] | 138 to 140 |  |  |  |  | 15.4 ± 2.13 | 93.9 ± 3.35 | -5.91 ± 3.86 | 53.3 ± 2.89 | -82.8 ± 3.48 | 44.2 ± 2.96 |  |  |  |  | 
2 | C=CC(=O)NNC(=O)c1ccc(F)cc1 [1b, N^2-Acryloyl-4-fluorobenzohydrazide] |  |  |  |  |  | -2.35 ± 2.24 | 60.7 ± 3.22 | -7.37 ± 1.52 | 39.9 ± 2.51 | -40.1 ± 3.34 | 33.2 ± 3.13 |  |  |  |  | 
3 | CCC(=O)NNC(=O)c1ccccc1 [6a, N^2-Propionylbenzohydrazide] | 106 to 107 |  |  |  |  | -10.5 ± 2.93 | 9.35 ± 2.53 | -25.3 ± 1.82 | -11.6 ± 2.52 | -19.6 ± 3.66 | -5.69 ± 2.54 | > 100 | ~1.00 | > 100 |  | 
4 | C=CC(=O)NNC(=O)c1ccc(Br)cc1 [1c, N^2-Acryloyl-4-bromobenzohydrazide] | 256 to 259 |  |  |  |  | -3.28 ± 1.5 | 87.9 ± 0.91 | -16.5 ± 1.45 | 88.7 ± 1.26 | -4.68 ± 3.17 | 46.6 ± 3.35 |  |  |  |  | 
5 | C=CC(=O)NNC(=O)c1ccc(C)cc1 [1k, N^2-Acryloyl-4-methylbenzohydrazide] | 157 to 160 |  |  |  |  | 11.5 ± 2.99 | > 100 | -8.78 ± 1.52 | 74.7 ± 2.96 | 55.3 ± 3.05 | > 100 |  |  | > 100 | 5.54 ± 0.51 | >18.1
6 | O=C(CCNNC(=O)c1ccccc1)NNC(=O)c1ccccc1 [6c, N^2-[3-(Benzoylaminoamino)-1-oxopropyl]-N^1-benzoylhydrazine] | 193 to 195 |  |  |  |  | 18.6 ± 3.98 | 96.9 ± 1.86 | -16 ± 2.91 | 95.6 ± 4.22 | 16.1 ± 3.55 | 97.9 ± 2.68 |  |  |  |  | 

Further lines, with some results ahead:

Row | melting point [°C] | Structure (SMILES) | IC50 (HCT 116 cells; [1]) [µM] | SI (selectivity index) (HCT 116 cells; Table 4) | times more potent than 1m (HCT 116 cells; ratio of IC50 values towards HCT 116 cells) [times] | IC50 (CRL 1790 cells; [2]) [µM] | inhibition at 10 µM (HCT 116 cells) [%] | inhibition at 100 µM (HCT 116 cells) [%] | inhibition at 10 µM (MDA-MB-231 cells) [%] | inhibition at 100 µM (MDA-MB-231 cells) [%] | inhibition at 10 µM (MCF-7 cells; Homo sapiens, MCF7, 48 h) [%] | inhibition at 100 µM (MCF-7 cells; Homo sapiens, MCF7, 48 h) [%] | IC50 (HCT 116 cells; Table 2, read-out: Neoplastic Cells IC50, HCT 116) [µM] | SI (selectivity index) (HCT 116 cells; Table 2) | IC50 (CRL 1790 cells; [3]) [µM] | IC50 (MCF-7 cells; Homo sapiens, MCF7, Table 2, 48 h, read-out: Neoplastic Cells IC50, MCF-7) [µM] | SI (selectivity index) (MCF-7 cells; IC50 CRL 1790 / IC50 MCF-7, Table 2)
7 | 151 to 154 | COc1ccc(C(=O)NNC(=O)CCN2CC(=Cc3ccccc3)C(=O)C(=Cc3ccccc3)C2)cc1OC [7b, 3,5-Bis(benzylidene)-1-[3-(3,4-dimethoxylphenylcarbonylaminoamino)-3-oxo-1-propyl]-4-piperidone] | 3.15 ± 0.33 | 3.06 | 4.86 | 9.63 ± 1.62 |  |  |  |  |  |  |  |  |  |  | 
8 | 200 to 202 | COc1ccc(C(=O)NNC(=O)CCN2CC(=Cc3ccc(Cl)cc3)C(=O)C(=Cc3ccc(Cl)cc3)C2)cc1OC [7c, 3,5-Bis(4-chlorobenzylidene)-1-[3-(3,4-dimethoxyphenylcarbonylaminoamino)-3-oxo-1-propyl]-4-piperidone] | 3.4 ± 0.01 | 3.60 |  | 12.2 ± 1.22 |  |  |  |  |  |  |  |  |  |  | 
9 | 198 to 200 | COc1ccc(C(=O)NNC(=O)CCN2CC(=Cc3ccc(F)cc3)C(=O)C(=Cc3ccc(F)cc3)C2)cc1OC [7d, 3,5-Bis(4-fluorobenzylidene)-1-[3-(3,4-dimethoxyphenylcarbonylaminoamino)-3-oxo-1-propyl]-4-piperidone] | 3.82 ± 0.11 | 2.99 |  | 11.4 ± 2.22 |  |  |  |  |  |  |  |  |  |  | 
